Measurements as given in patent US4241056A, “Penicillins and salts thereof” (Boehringer Ingelheim GmbH, priority 1978, dated 1980).

Tests used:
E. coli ATCC 11775 = assay: In vivo activity against experimental infection in mice; parameters: species or system mouse (NMRI); details: Escherichia coli, ATCC11775, sc, 168 h, subcutaneous, 7 days observation, read-out: ED50 (dose at which 50% of the animals survived)
Method: A number of compounds of this invention were tested in vivo in mice against experimental infections. Bacteria E. coli ATCC 11775 and pseudomonas aeruginosa walter were used as pathogens. An intraperitoneal infection with 0.2 ml of a 5% mucin suspension of the bacteria was induced. This corresponds to about 2×10^6 germs E. coli and 8×10^5 germs pseudomonas/mouse. Female NMRI mice were divided into groups of 10 animals each, two control groups remained untreated, the remaining groups were treated with different doses of the respective penicillins for the determination of the ED50 (dose at which 50% of the animals survived). The groups with the E. coli infection were treated with the substance 3 times on the first day (1, 4 and 7 hours post-infectionem) and for 2 days thereafter twice a day. The groups with the pseudomonas infection were treated with the substance applied 6 times on the first day (1, 3, 6, 9, 12, and 15 hours post-infectionem) and for 2 days thereafter twice a day. The observation time was in both cases 7 days.

[1] = Serum (blood) level in rats; assay type: in vivo; details: rat, average from 3 rats; for concentration at 1 h: 60 min.; for concentration at 2 h: 120 min.; for concentration at 0.5 h: 30 min.
Method: For the determination of the serum level in rats, typical representatives of the penicillins according to the invention were administered at a dosage of 10 mg/kg subcutaneously or 100 mg/kg per os to groups of 3 female FW 49 rats (weight 100 to 130 gm) each. Blood tests taken from the heart were worked up, and the obtained sera were tested by the cylinder test-agar diffusion method on plates with sarcina lutea ATCC 15957. The samples were compared with standard curves.

[2] = test system: klebsiella pneumoniae 272; assay: MIC, serial dilution test in the microtiter system; assay type: cell-based; details: 18 h, klebs pneum. 272, 37° C., 18-20 hours
Method: (§1) The tests were performed according to the method of the serial dilution test in the microtiter system. The effect of the substances on bacteriostasis was examined in a fluid medium. The activity on bacteriostatis was examined at the following concentrations:
(§2) 10 gm of peptone, 8 gm of meat extract-oxoid, 3 gm of sodium chloride, 2 gm of sec. sodium phosphate were diluted with distilled water to 1000 ml (pH 7.2-7.4). Only in the test against streptococci 1% of glucose was added. The age of the primary cultures was about 20 hours. The standardizations of the pathogen suspension was effected by using a photometer according to "Eppendorf" (test tube diameter 14 mm, filter 546 nm) with the aid of the turbidity of a comparison suspension consisting of barium sulfate, this suspension being prepared by addition of 3.0 ml of 1% barium chloride solution to 97 ml of 1% sulfuric acid. After the standardization, streptococcus aronson were further diluted to a concentration of 1:15 and the other germs to a concentration of 1:1500 by menas of a sodium chloride solution.
(§3) 16 mg of the test substance were put into a 10 ml measuring flask and filled up to the mark with the solvent. The further dilution series was standardized with distilled water or the respective solvent.
(§4) The cavities of the microtiter plates were filled with 0.2 ml of nutrient medium. Then, 0.01 ml of the corresponding test substance dilution was added and inoculated with 0.01 ml of the standardized suspension. The bacteria were incubated at 37° C. for 18-20 hours. Control tests merely using the solvent were carried out simultaneously.
(§5) The measurement was carried out macroscopically to determine the minimal inhibitory (threshold) concentration, i.e. the lowest still bacteriostatically effective concentration.
(§6) Staphylococcus aureus SG 511, streptococcus aronson, streptococcus faecalis ATCC 10541, escherichia coli ATCC 9637, 11 775 and escherichia coli 12593/74 (β-lactamase carrier), pseudomonas aeruginosa hamburgensis and ATCC 10145, serratia marcescens ATCC 13 880, klebsiella pneumoniae ATCC 10 031 and 272 and proteus mirabilis hamburgensis.

[3] = test system: proteus mirabilis hamburgensis; assay: MIC, serial dilution test in the microtiter system; assay type: cell-based; details: 18 h, prot. mirabilis, 37° C., 18-20 hours
Method: as §1, §2, §3, §4, §5, §6

[4] = test system: pseudomonas aeruginosa hamburgensis; assay: MIC, serial dilution test in the microtiter system; assay type: cell-based; details: 18 h, pseud. aerug. hamb., 37° C., 18-20 hours
Method: as §1, §2, §3, §4, §5, §6

[5] = test system: escherichia coli 12593/74 (β-lactamase carrier); assay: MIC, serial dilution test in the microtiter system; assay type: cell-based; details: 18 h, E. coli 12593/74 (β-lactamase carrier), 37° C., 18-20 hours
Method: as §1, §2, §3, §4, §5, §6

[6] = test system: serratia marcescens ATCC 13 880; assay: MIC, serial dilution test in the microtiter system; assay type: cell-based; details: ATCC13, 18 h, serrat marcesc., 37° C., 18-20 hours
Method: as §1, §2, §3, §4, §5, §6

[7] = test system: pseudomonas aeruginosa ATCC 10145; assay: MIC, serial dilution test in the microtiter system; assay type: cell-based; details: ATCC10145, 18 h, pseud. aerug. ATCC 10145, 37° C., 18-20 hours
Method: as §1, §2, §3, §4, §5, §6

[8] = test system: klebsiella pneumoniae ATCC 10 031; assay: MIC, serial dilution test in the microtiter system; assay type: cell-based; details: 18 h, klebs pneum ATCC 10031, 37° C., 18-20 hours
Method: as §1, §2, §3, §4, §5, §6

streptococcus aronson = assay: MIC, serial dilution test in the microtiter system; assay type: cell-based; details: 18 h, strept. aronson, 1% glucose added, 37° C., 18-20 hours
Method: as §1, §2, §3, §4, §5, §6

[9] = test system: escherichia coli ATCC 9637; assay: MIC, serial dilution test in the microtiter system; assay type: cell-based; details: ATCC9637, 18 h, E. coli ATCC 9637, 37° C., 18-20 hours
Method: as §1, §2, §3, §4, §5, §6

[10] = test system: escherichia coli ATCC 11775; assay: MIC, serial dilution test in the microtiter system; assay type: cell-based; details: ATCC11775, 18 h, E. coli ATCC 11775, 37° C., 18-20 hours
Method: as §1, §2, §3, §4, §5, §6

[11] = test system: Staphylococcus aureus SG 511; assay: MIC, serial dilution test in the microtiter system; assay type: cell-based; details: SG511, 18 h, Staph. Aureus SG 511, 37° C., 18-20 hours
Method: as §1, §2, §3, §4, §5, §6

[12] = test system: streptococcus faecalis ATCC 10541; assay: MIC, serial dilution test in the microtiter system; assay type: cell-based; details: Enterococcus faecalis, ATCC10541, 18 h; strept. faecal.; 37° C., 18-20 hours
Method: as §1, §2, §3, §4, §5, §6

SMILES | MIC [2] [µg/mL] | MIC [3] [µg/mL] | MIC [4] [µg/mL] | MIC [5] [µg/mL] | MIC [6] [µg/mL] | MIC [7] [µg/mL] | MIC [8] [µg/mL] | MIC (streptococcus aronson) [µg/mL] | MIC [9] [µg/mL] | MIC [10] [µg/mL] | MIC [12] [µg/mL] | ED50 (E. coli ATCC 11775) [mg/kg] | concentration at 1 h ([1]; oral 100 mg/kg) [ng/mL] | concentration at 2 h ([1]; oral 100 mg/kg) [ng/mL] | concentration at 1 h ([1]; sc, subcutaneous 10 mg/kg) [ng/mL] | concentration at 2 h ([1]; sc, subcutaneous 10 mg/kg) [ng/mL] | MIC [11] [µg/mL] | concentration at 0.5 h ([1]; oral 100 mg/kg) [ng/mL] | concentration at 0.5 h ([1]; sc, subcutaneous 10 mg/kg) [ng/mL]
Cc1ncc(NC(=O)N[C@@H](C(=O)N[C@@H]2C(=O)N3[C@@H]2SC(C)(C)[C@@H]3C(=O)O)c2ccc(O)cc2)c(O)n1 [B, D-α-[3-(4-hydroxy-2-methyl-5-pyrimidyl)-ureido]-p-hydroxybenzyl-penicillin sodium] | 80 | 0.6 | 5 | 80 | 5 | 2.5 | 80 | 0.3 | 2.5 | 1.25 | 10 | 5 | 18800 | 1900 | 7300 | 1100 | 1.25 | – | –
CC(=O)Nc1ncc(NC(=O)N[C@@H](C(=O)N[C@@H]2C(=O)N3[C@@H]2SC(C)(C)[C@@H]3C(=O)O)c2ccc(O)cc2)c(O)n1 [Compound E, D-α-[3-(acetylamino-4-hydroxy-pyrimidyl)-ureido]-p-hydroxybenzyl-penicillin sodium] | 80 | 1.25 | 2.5 | > 80 | 10 | 2.5 | 80 | 0.3 | 5 | 2.5 | 10 | 15 | 13900 | 13700 | 5800 | 7700 | 1.25 | 13800 | 4100
CC1(C)S[C@@H]2[C@H](NC(=O)[C@H](NC(=O)Nc3cnc(N4CCOCC4)nc3O)c3ccc(O)cc3)C(=O)N2[C@H]1C(=O)O [K, D-α-[3-(4-hydroxy-2-morpholiono-5-pyrimidyl)-ureido]-p-hydroxybenzyl-penicillin sodium] | 80 | 1.25 | 2.5 | > 80 | 5 | 1.25 | > 80 | 0.3 | 2.5 | 2.5 | 10 | – | – | – | – | – | 1.25 | – | –

Further lines, with some results ahead:

MIC [2] [µg/mL] | MIC [3] [µg/mL] | MIC [4] [µg/mL] | MIC [5] [µg/mL] | MIC [6] [µg/mL] | MIC [7] [µg/mL] | MIC [8] [µg/mL] | MIC (streptococcus aronson) [µg/mL] | MIC [9] [µg/mL] | MIC [10] [µg/mL] | MIC [12] [µg/mL] | SMILES | ED50 (E. coli ATCC 11775) [mg/kg] | concentration at 1 h ([1]; oral 100 mg/kg) [ng/mL] | concentration at 2 h ([1]; oral 100 mg/kg) [ng/mL] | concentration at 1 h ([1]; sc, subcutaneous 10 mg/kg) [ng/mL] | concentration at 2 h ([1]; sc, subcutaneous 10 mg/kg) [ng/mL] | MIC [11] [µg/mL] | concentration at 0.5 h ([1]; oral 100 mg/kg) [ng/mL] | concentration at 0.5 h ([1]; sc, subcutaneous 10 mg/kg) [ng/mL]
2.5 | 0.6 | 2.5 | 10 | 0.6 | 2.5 | 2.5 | 0.02 | 1.25 | 0.6 | 2.5 | CC1(C)S[C@@H]2[C@H](NC(=O)[C@H](NC(=O)Nc3cnc(Nc4ccc(Cl)c(Cl)c4)nc3O)c3ccc(O)cc3)C(=O)N2[C@H]1C(=O)O [J, D-α-[3-(2-m,p-dichloroanilino-4-hydroxy-5-pyrimidyl)-ureido]-p-hydroxybenzyl-penicillin sodium] | – | – | – | – | – | – | – | –
10 | 0.6 | 2.5 | > 80 | 1.25 | 2.5 | 20 | 0.08 | 0.6 | 1.25 | 5 | CC1(C)S[C@@H]2[C@H](NC(=O)[C@H](NC(=O)Nc3cnc(NC4CCCCC4)nc3O)c3ccc(O)cc3)C(=O)N2[C@H]1C(=O)O [L, D-α-[3-(2-cyclohexylamino-4-hydroxy-5-pyrimidyl)-ureido]-p-hydroxybenzyl-penicillin sodium] | – | – | – | – | – | 0.3 | – | –
